From ChEMBL document CHEMBL1150478, “Synthesis and in vitro antiandrogenic activity of 17-hydroxy-17-(-hydroxy/haloalkyn-1-yl)-4-methyl-4-aza-3-oxo-5-androstan-(1-ene)-3-ones” (Bioorg Med Chem Lett, 1995)

Assay: Concentration required for inhibition of 5-alpha-Dihydrotestosterone (DHT) stimulated shionogi cell proliferation was determined
Assay type: functional
Details: Mus musculus

Question: Which IC50 does the source give for CN1C(=O)C=C[C@]2(C)C3CC[C@@]4(C)C(CC[C@@]4(O)C#CCCCCl)C3CCC12 (some centres not stated) here?
Answer: 67.2 nM

Question: For CC(C)(O)C(=O)Nc1ccc([N+](=O)[O-])c(C(F)(F)F)c1 [HYDROXYFLUTAMIDE], which IC50 is on record?
Answer: 52.5 nM

Question: With CN1C(=O)CC[C@]2(C)C3CC[C@@]4(C)C(CC[C@@]4(O)C#CCCI)C3CCC12 (some centres not stated) as the compound, how does the IC50 read?
Answer: 160 nM

Question: For CN1C(=O)CC[C@]2(C)C3CC[C@@]4(C)C(CC[C@@]4(O)C#CCCCl)C3CCC12 (some centres not stated), which IC50 is on record?
Answer: 250 nM

Question: With CN1C(=O)C=C[C@]2(C)C3CC[C@@]4(C)C(CC[C@@]4(O)C#CCCI)C3CCC12 (some centres not stated) as the compound, how does the IC50 read?
Answer: 96.8 nM

Question: Which IC50 does the source give for CN1C(=O)C=C[C@]2(C)C3CC[C@@]4(C)C(CC[C@@]4(O)C#CCCCI)C3CCC12 (some centres not stated) here?
Answer: 179 nM

Question: For CN1C(=O)C=C[C@]2(C)C3CC[C@@]4(C)C(CC[C@@]4(O)C#CCCCl)C3CCC12 (some centres not stated), which IC50 is on record?
Answer: 94.5 nM

Question: Which IC50 does the source give for CN1C(=O)CC[C@]2(C)C3CC[C@@]4(C)C(CC[C@@]4(O)C#CCCCCl)C3CCC12 (some centres not stated) here?
Answer: 129 nM

Question: For CN1C(=O)CC[C@]2(C)C3CC[C@@]4(C)C(CC[C@@]4(O)C#CCCCI)C3CCC12 (some centres not stated), which IC50 is on record?
Answer: 328 nM

Question: With CN1C(=O)CC[C@]2(C)C3CC[C@@]4(C)C(CC[C@@]4(O)C#CCCCBr)C3CCC12 (some centres not stated) as the compound, how does the IC50 read?
Answer: 325 nM

Question: Which IC50 does the source give for CN1C(=O)C=C[C@]2(C)C3CC[C@@]4(C)C(CC[C@@]4(O)C#CCCBr)C3CCC12 (some centres not stated) here?
Answer: 142 nM

Question: Which IC50 does the source give for CN1C(=O)CC[C@]2(C)C3CC[C@@]4(C)C(CC[C@@]4(O)C#CCCBr)C3CCC12 (some centres not stated) here?
Answer: 279 nM

Question: With CN1C(=O)C=C[C@]2(C)C3CC[C@@]4(C)C(CC[C@@]4(O)C#CCCCBr)C3CCC12 (some centres not stated) as the compound, how does the IC50 read?
Answer: 149 nM

Assay: Concentration required for inhibition of 5-alpha-Dihydrotestosterone (DHT) stimulated shionogi cell proliferation was determined; No activity was observed at 1 uM
Assay type: functional
Details: Mus musculus

Question: With CN1C(=O)C=C[C@]2(C)C3CC[C@@]4(C)C(CC[C@@]4(O)C#CCCCO)C3CCC12 (some centres not stated) as the compound, how does the IC50 read?
Answer: > 1000 nM

Question: With CN1C(=O)CC[C@]2(C)C3CC[C@@]4(C)C(CC[C@@]4(O)C#CCCO)C3CCC12 (some centres not stated) as the compound, how does the IC50 read?
Answer: > 1000 nM

Question: Which IC50 does the source give for CN1C(=O)C=C[C@]2(C)C3CC[C@@]4(C)C(CC[C@@]4(O)C#CCCO)C3CCC12 (some centres not stated) here?
Answer: > 1000 nM

Question: With CN1C(=O)CC[C@]2(C)C3CC[C@@]4(C)C(CC[C@@]4(O)C#CCCCO)C3CCC12 (some centres not stated) as the compound, how does the IC50 read?
Answer: > 1000 nM
